The values below come from patent US8575091B1, “Amylin analogues and pharmaceutical compositions thereof” (Novo Nordisk A/S, priority 2012, dated 2013).

Where two headings read alike, the source gives them in different places. Numbered stars: 1 amine (or outer) side, 2 acyl side, 3 side chain; on linkers, the order of the positions; unused ones are H or OH. Bridge positions count the residues as written; N and C are the ends. Side chains are listed from the residue outwards. Peptide text beside a SMILES is read from it. * marks the point of attachment. C20 diacid = O=C(O)CCCCCCCCCCCCCCCCCCC(=O)*; γGlu = O=C(O)[C@H](CCC(=O)[*:2])N[*:1]; AEEA = NCCOCCOCC(=O)O

Test [1] has as its target T1, human calcitonin receptor (Homo sapiens, UniProt P30988).
T1 construct: expressed in transfected cells
T1 sequence (P30988 25-474): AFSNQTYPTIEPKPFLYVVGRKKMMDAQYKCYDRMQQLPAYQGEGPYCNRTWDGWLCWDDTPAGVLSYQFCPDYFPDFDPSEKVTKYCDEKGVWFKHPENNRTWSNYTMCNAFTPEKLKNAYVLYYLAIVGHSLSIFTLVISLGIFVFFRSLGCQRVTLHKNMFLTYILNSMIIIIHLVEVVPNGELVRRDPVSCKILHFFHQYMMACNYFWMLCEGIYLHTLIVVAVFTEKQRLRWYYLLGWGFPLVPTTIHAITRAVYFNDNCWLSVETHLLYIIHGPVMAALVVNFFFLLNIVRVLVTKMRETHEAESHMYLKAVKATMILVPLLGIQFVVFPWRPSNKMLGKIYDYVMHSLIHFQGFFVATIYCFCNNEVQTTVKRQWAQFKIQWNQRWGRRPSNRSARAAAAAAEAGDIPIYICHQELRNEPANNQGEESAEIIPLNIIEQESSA
As to the kind of experiment: Assay (VII) binding to the human calcitonin receptor (SPA, 125I-Calcitonin).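 Further: cell membranes coupled to SPA beads, competitive displacement read by scintillation counting, IC50 derived from a one-site competition fit as a measure of receptor affinity.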 The conditions noted are these: read-out: hCTR bind IC50.

For another test, the target named is T2, human amylin receptor (Homo sapiens, UniProt O60896+P30988).
T2 construct: expressed in transfected cells
T2 sequence (P30988 25-474): T1 sequence (P30988 25-474)
T2 sequence (O60896 24-148 partner): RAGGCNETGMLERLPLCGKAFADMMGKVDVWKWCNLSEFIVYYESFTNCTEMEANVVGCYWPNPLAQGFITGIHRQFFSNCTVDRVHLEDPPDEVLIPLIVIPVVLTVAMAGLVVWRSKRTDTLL
The test is described as follows: Assay (V) binding to the human amylin receptor (SPA, 125I-rat amylin). The conditions noted are these: human amylin receptor membranes, SPA; read-out: hAmylin-R bind IC50. The method in brief: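 IC50, taken as receptor affinity, came from one-site binding competition analysis of scintillation proximity counts. Amylin 3(a)/CRE-luc cell membranes (35 ng/μL final) were mixed with SPA beads (0.05 mg/well) in 50 mM Hepes pH 7.4 containing CaCl2, MgCl2, 0.1% OA and 0.02% Tween20.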

Test [2] concerns the target T3, human amylin receptor (amylin 3(a) receptor: human calcitonin receptor + RAMP-3) (Homo sapiens, UniProt O60896+P30988).
T3 construct: expressed in transfected cells
T3 sequence (P30988 25-474): T1 sequence (P30988 25-474)
T3 sequence (O60896 24-148 partner): T2 sequence (O60896 24-148 partner)
As to the kind of experiment: Assay (II)a functional assay, human amylin receptor (CRE luciferase, BHK cells). The format is cell-based. The conditions noted are these: for EC50: read-out: hAmylin-R funct. EC50.

In test [3] the target is T1, human calcitonin receptor. The test is described as follows: Assay (II)a functional assay, human calcitonin receptor (CRE luciferase, BHK cells).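 Further: luminescence from a CRE-driven luciferase reporter, read by single photon counting after cells were exposed to test samples for 3 h at 37 °C under 5% CO2.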 The format is cell-based. The conditions noted are these: read-out: hCTR funct. EC50.
Setting [4] is: Table 6, human functional selectivity (hCTR EC50 / hAmylin-R EC50).
Where [5] appears, read: Table 6a, human functional selectivity (hCTR EC50 / hAmylin-R EC50), at least 5.
Where [6] appears, read: Table 6j, hCTR funct. EC50 / hAmylin-R funct. EC50.
[7] abbreviates: Table 6j, human amylin receptor functional.
The mark [8] stands for this setting: Table 6k, hCTR funct. EC50 / hAmylin-R funct. EC50.
Where [9] appears, read: functional assay, human amylin receptor.

In general, IC50 refers to the concentration needed to halve the response being measured. The term EC50 denotes the concentration giving half of the maximal effect. Take `CC[C@H](C)[C@H](NC(=O)[C@H](C)NC(=O)CNC(=O)[C@H](Cc1ccccc1)NC(=O)[C@H](CC(N)=O)NC(=O)[C@@H]1CCCN1C(=O)[C@H](CO)NC(=O)[C@H](CO)NC(=O)[C@H](Cc1c[nH]cn1)NC(=O)[C@H](CCCNC(=N)N)NC(=O)[C@H](CC(C)C)NC(=O)[C@H](Cc1ccccc1)NC(=O)[C@H](CC(N)=O)NC(=O)[C@H](C)NC(=O)[C@H](CC(C)C)NC(=O)[C@H](CCCNC(=N)N)NC(=O)[C@H](CCC(N)=O)NC(=O)[C@@H](NC(=O)[C@H](C)NC(=O)[C@@H]1CSSC[C@H](NC(=O)[C@@H](N)CCCCNC(=O)COCCOCCNC(=O)CC[C@H](NC(=O)CCCCCCCCCCCCCCCCCCC(=O)O)C(=O)O)C(=O)N[C@@H](CC(N)=O)C(=O)N[C@@H]([C@@H](C)O)C(=O)N[C@@H](C)C(=O)N[C@@H]([C@@H](C)O)C(=O)N1)[C@@H](C)O)C(=O)N1CCC[C@H]1C(=O)N[C@@H](CO)C(=O)N1CCC[C@H]1C(=O)N[C@H](C(=O)N[C@@H](CC(N)=O)C(=O)N[C@H](C(=O)NCC(=O)N1CCC[C@H]1C(=O)N[C@@H](CC(N)=O)C(=O)N[C@H](C(=O)N[C@@H](Cc1ccc(O)cc1)C(N)=O)[C@@H](C)O)C(C)C)[C@@H](C)O` [Example 56] (H-K([AEEA-γGlu-C20 diacid])CNTATCATQRLANFLRHSSPNFGAIPSPTNVGPNTY-NH2; disulfide 2-7): the IC50 in test [1] worked out at 2.09 nM; on human amylin receptor, 0.049 nM. Besides, the “Ratio hCT/hAmylin funct.” value in test [2] (setting [4]), in test [2] (setting [5]), in test [2] (setting [6]) and in test [2] (setting [8]) was 5.0 throughout. Besides, the EC50 in test [2] (setting [7]) was found to be 0.102 nM; in test [3] it was 0.506 nM.
As for `CC[C@H](C)[C@H](NC(=O)[C@H](C)NC(=O)CNC(=O)[C@H](Cc1ccccc1)NC(=O)[C@H](CC(N)=O)NC(=O)[C@@H]1CCCN1C(=O)[C@H](CO)NC(=O)[C@H](CO)NC(=O)[C@H](Cc1c[nH]cn1)NC(=O)[C@H](CCCNC(=N)N)NC(=O)[C@H](CC(C)C)NC(=O)[C@H](Cc1ccccc1)NC(=O)[C@H](CC(N)=O)NC(=O)[C@H](C)NC(=O)[C@H](CC(C)C)NC(=O)[C@H](CCCNC(=N)N)NC(=O)[C@H](CCC(N)=O)NC(=O)[C@@H](NC(=O)[C@H](C)NC(=O)[C@@H]1CSSC[C@H](NC(=O)[C@@H](N)CCCCNC(=O)CC[C@H](NC(=O)CCCCCCCCCCCCCCCCCCC(=O)O)C(=O)O)C(=O)N[C@@H](CC(N)=O)C(=O)N[C@@H]([C@@H](C)O)C(=O)N[C@@H](C)C(=O)N[C@@H]([C@@H](C)O)C(=O)N1)[C@@H](C)O)C(=O)N1CCC[C@H]1C(=O)N[C@@H](CO)C(=O)N[C@@H](CO)C(=O)N[C@H](C(=O)N[C@@H](CC(N)=O)C(=O)N[C@H](C(=O)NCC(=O)N[C@@H](CO)C(=O)N[C@@H](Cc1c[nH]cn1)C(=O)N[C@H](C(=O)N[C@@H](Cc1ccc(O)cc1)C(N)=O)[C@@H](C)O)C(C)C)[C@@H](C)O` [Example 60], the IC50 in test [1] amounted to 31.4 nM; at human amylin receptor, 0.695 nM. For the same compound, the figures for the EC50 in test [2] (setting [9]) and in test [3] were 0.351 nM and 5.36 nM, respectively.
As for `CC[C@H](C)[C@H](NC(=O)[C@H](C)NC(=O)CNC(=O)[C@H](Cc1ccccc1)NC(=O)[C@H](CC(N)=O)NC(=O)[C@@H]1CCCN1C(=O)[C@H](CO)NC(=O)[C@H](CO)NC(=O)[C@H](Cc1c[nH]cn1)NC(=O)[C@H](CCCNC(=N)N)NC(=O)[C@H](CC(C)C)NC(=O)[C@H](Cc1ccccc1)NC(=O)[C@H](Cc1c[nH]cn1)NC(=O)[C@H](C)NC(=O)[C@H](CC(C)C)NC(=O)[C@H](CCCNC(=N)N)NC(=O)[C@H](CCC(N)=O)NC(=O)[C@@H](NC(=O)[C@H](C)NC(=O)[C@@H]1CSSC[C@H](NC(=O)[C@@H](N)CCCCNC(=O)COCCOCCNC(=O)CC[C@H](NC(=O)CCCCCCCCCCCCCCCCCCC(=O)O)C(=O)O)C(=O)N[C@@H](CC(N)=O)C(=O)N[C@@H]([C@@H](C)O)C(=O)N[C@@H](C)C(=O)N[C@@H]([C@@H](C)O)C(=O)N1)[C@@H](C)O)C(=O)N1CCC[C@H]1C(=O)N[C@@H](CO)C(=O)N[C@@H](CO)C(=O)N[C@H](C(=O)N1CCC[C@H]1C(=O)N[C@H](C(=O)NCC(=O)N[C@@H](CO)C(=O)N[C@@H](CC(N)=O)C(=O)N[C@H](C(=O)N[C@@H](Cc1ccc(O)cc1)C(N)=O)[C@@H](C)O)C(C)C)[C@@H](C)O` [Example 61] (H-K([AEEA-γGlu-C20 diacid])CNTATCATQRLAHFLRHSSPNFGAIPSSTPVGSNTY-NH2; disulfide 2-7), the half-maximal inhibitory concentration (IC50) in test [1] is 8.11 nM; at human amylin receptor it was 0.122 nM. The EC50 in test [2] (setting [9]) was 0.051 nM; in test [3], 0.554 nM.
On the same counts, the results for `CC[C@H](C)[C@H](NC(=O)[C@H](C)NC(=O)CNC(=O)[C@H](Cc1ccccc1)NC(=O)[C@H](CC(N)=O)NC(=O)[C@@H]1CCCN1C(=O)[C@H](CO)NC(=O)[C@H](CO)NC(=O)[C@H](Cc1c[nH]cn1)NC(=O)[C@H](CCCNC(=N)N)NC(=O)[C@H](CC(C)C)NC(=O)[C@H](Cc1ccccc1)NC(=O)[C@H](CCCNC(=N)N)NC(=O)[C@H](C)NC(=O)[C@H](CC(C)C)NC(=O)[C@H](CCCNC(=N)N)NC(=O)[C@H](CCC(N)=O)NC(=O)[C@@H](NC(=O)[C@H](C)NC(=O)[C@@H]1CSSC[C@H](NC(=O)[C@@H](N)CCCCNC(=O)CC[C@H](NC(=O)CCCCCCCCCCCCCCCCCCC(=O)O)C(=O)O)C(=O)N[C@@H](CC(N)=O)C(=O)N[C@@H]([C@@H](C)O)C(=O)N[C@@H](C)C(=O)N[C@@H]([C@@H](C)O)C(=O)N1)[C@@H](C)O)C(=O)N1CCC[C@H]1C(=O)N[C@@H](CO)C(=O)N[C@@H](CO)C(=O)N[C@H](C(=O)N1CCC[C@H]1C(=O)N[C@H](C(=O)NCC(=O)N[C@@H](CO)C(=O)N[C@@H](CC(N)=O)C(=O)N[C@H](C(=O)N[C@@H](Cc1ccc(O)cc1)C(N)=O)[C@@H](C)O)C(C)C)[C@@H](C)O` [Example 63] (H-K([γGlu-C20 diacid])CNTATCATQRLARFLRHSSPNFGAIPSSTPVGSNTY-NH2; disulfide 2-7) are 130 nM, 0.825 nM, 0.037 nM and 5.13 nM.
Turning to `CC[C@H](C)[C@H](NC(=O)[C@H](C)NC(=O)CNC(=O)[C@H](Cc1ccccc1)NC(=O)[C@H](CC(N)=O)NC(=O)[C@@H]1CCCN1C(=O)[C@H](CO)NC(=O)[C@H](CO)NC(=O)[C@H](Cc1c[nH]cn1)NC(=O)[C@H](CCCNC(=N)N)NC(=O)[C@H](CC(C)C)NC(=O)[C@H](Cc1ccccc1)NC(=O)[C@H](Cc1c[nH]cn1)NC(=O)[C@H](C)NC(=O)[C@H](CC(C)C)NC(=O)[C@H](CCCNC(=N)N)NC(=O)[C@H](CCC(N)=O)NC(=O)[C@@H](NC(=O)[C@H](C)NC(=O)[C@@H]1CSSC[C@H](NC(=O)[C@@H](N)CCCCNC(=O)CC[C@H](NC(=O)CCCCCCCCCCCCCCCCCCC(=O)O)C(=O)O)C(=O)N[C@@H](CC(N)=O)C(=O)N[C@@H]([C@@H](C)O)C(=O)N[C@@H](C)C(=O)N[C@@H]([C@@H](C)O)C(=O)N1)[C@@H](C)O)C(=O)N1CCC[C@H]1C(=O)N[C@@H](CO)C(=O)N[C@@H](CO)C(=O)N[C@H](C(=O)N[C@@H](CC(N)=O)C(=O)N[C@H](C(=O)NCC(=O)N1CCC[C@H]1C(=O)N[C@@H](CC(N)=O)C(=O)N[C@H](C(=O)N[C@@H](Cc1ccc(O)cc1)C(N)=O)[C@@H](C)O)C(C)C)[C@@H](C)O` [Example 67] (H-K([γGlu-C20 diacid])CNTATCATQRLAHFLRHSSPNFGAIPSSTNVGPNTY-NH2; disulfide 2-7), the half-maximal inhibitory concentration (IC50) in test [1] was found to be 4.63 nM; on human amylin receptor it was 0.09 nM. Moreover, the “Ratio hCT/hAmylin funct.” value in test [2] (setting [4]), in test [2] (setting [5]), in test [2] (setting [6]) and in test [2] (setting [8]) was 5.2 each time. Besides, the concentration giving a half-maximal response (EC50) in test [2] (setting [7]) stood at 0.069 nM; in test [3] it was 0.354 nM.
